This passage reports IC50, Ki and bioavailability results from ChEMBL document CHEMBL5512629, “Insight into small-molecule inhibitors targeting extracellular nucleotide pyrophosphatase/phosphodiesterase1 for potential multiple human diseases” (Eur J Med Chem, 2024).

The target in series [1] is T1, Ectonucleotide pyrophosphatase/phosphodiesterase family member 1 (Homo sapiens, UniProt P22413).
T1 sequence (P22413 whole entry): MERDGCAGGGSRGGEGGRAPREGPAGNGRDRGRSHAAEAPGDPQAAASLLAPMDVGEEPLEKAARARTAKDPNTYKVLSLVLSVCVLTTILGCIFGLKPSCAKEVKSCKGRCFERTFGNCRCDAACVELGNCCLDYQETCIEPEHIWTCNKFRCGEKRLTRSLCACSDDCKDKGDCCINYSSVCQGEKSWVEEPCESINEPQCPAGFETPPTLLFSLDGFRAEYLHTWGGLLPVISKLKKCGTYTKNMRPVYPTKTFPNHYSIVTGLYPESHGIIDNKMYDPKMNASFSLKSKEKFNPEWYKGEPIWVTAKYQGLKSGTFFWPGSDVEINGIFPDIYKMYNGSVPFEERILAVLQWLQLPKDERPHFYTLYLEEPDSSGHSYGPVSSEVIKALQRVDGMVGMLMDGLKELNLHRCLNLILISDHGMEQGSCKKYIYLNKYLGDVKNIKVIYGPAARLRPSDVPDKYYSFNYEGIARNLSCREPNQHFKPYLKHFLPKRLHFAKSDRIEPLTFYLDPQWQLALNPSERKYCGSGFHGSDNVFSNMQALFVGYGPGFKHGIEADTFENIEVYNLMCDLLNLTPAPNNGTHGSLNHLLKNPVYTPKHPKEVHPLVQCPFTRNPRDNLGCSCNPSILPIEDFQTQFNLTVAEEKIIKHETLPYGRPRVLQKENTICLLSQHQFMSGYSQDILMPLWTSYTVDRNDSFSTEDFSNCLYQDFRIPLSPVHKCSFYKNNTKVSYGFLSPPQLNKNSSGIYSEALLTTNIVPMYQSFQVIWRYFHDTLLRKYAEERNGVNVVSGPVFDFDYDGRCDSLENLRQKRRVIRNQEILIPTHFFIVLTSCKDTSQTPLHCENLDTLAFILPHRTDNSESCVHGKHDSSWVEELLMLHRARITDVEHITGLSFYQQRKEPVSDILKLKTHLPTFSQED
Briefly: Inhibition of human ENPP1.

Series [2] has as its target T1, Ectonucleotide pyrophosphatase/phosphodiesterase family member 1. Briefly: Binding affinity to human ENPP1 assessed as inhibition constant.
Series [3] has the same target. Briefly: Binding affinity to ENPP1 (unknown origin) assessed as inhibition constant.
Series [4] shares this target. Briefly: Inhibition of ENPP1 (unknown origin).
The nature of series [5]: Oral bioavailability in mouse. Format: ADME, organism-based. Particulars: in vivo.

As usually defined, the IC50 is the point on the concentration scale where inhibition reaches its midpoint. A higher IC50 goes with weaker potency in that assay. Regarding `COc1cc2cc(-n3cc(C)c4ccccc43)n3c4ccccc4c(C)c3c2cc1OC`, the IC50 in series [1] worked out at 0.36 µM.
The Ki is the dissociation constant of the complex between target and ligand, obtained from inhibition or displacement. With `O=C(/C=C/c1ccc(O)c(O)c1)O[C@H](Cc1ccc(O)c(O)c1)C(=O)O` [ROSMARINIC ACID], the Ki in series [2] is 0.0269 µM.
For `Nc1ncnc2c1ncn2[C@@H]1O[C@H](COP(=O)(O)CP(=O)(O)OP(O)(O)=S)[C@@H](O)[C@H]1O`, the Ki in series [3] is 20 µM.
On to `COc1ccc(NC(=O)CSc2nc3c(C)c(C#N)ncc3[nH]2)cc1O`, for which, in series [4], the IC50 amounted to 2.06 µM.
In series [4], `Cc1nc2ncnn2c(N(C)C)c1Cc1cccc(N)c1` registered an IC50 of 260 µM.
By bioavailability is commonly meant the share of a dose that reaches the circulation, judged against a reference dose that is usually intravenous. A high value points to good availability. Regarding `Cn1nc(Cc2ccc(NS(N)(=O)=O)cc2)c2ccccc2c1=O`, the bioavailability in series [5] amounted to 65%.
For `COc1cccc2c(N3CCC(CCP(=O)(O)O)CC3)ncnc12`, in series [2], the Ki is less than 0.002 µM.
